We go through two molecules from patent US5116846A, “N-aralkyl piperidine derivatives as psychotropic drugs” (priority 1990, dated 1992).

Experiment [1] in a line: (+)-N-Allylnormetazocine-Induced Turning Behavior in Rats. The conditions noted are these: test drug p.o. or s.c. 20 minutes before testing; (+)-N-allylnormetazocine 4.0 mg/kg s.c.; class symbols not defined. Format: in vivo, rat (male Sprague-Dawley). As to the method: (+)-N-Allylnormetazocine-Induced Turning Behavior in Rats
Male Sprague-Dawley rats (CDlCR, Charles River), weighing 190-290 g, were used for surgery. In order to spare […] neurons, rats were injected with 25 mg/kg imipramine i.p. 30 minutes before surgery. The rats were anesthetized with a 1:1.2 ratio mixture of Xylazine:Ketamine given 0.1 mL/100 g body weight i.m. A Ringers-Wydaze (100:0.01) solution was given to prevent dehydration. Dopamine was depleted in the right striatum by injecting the neurotoxin 6-hydroxydopamine (6-OHDA) into the substantia nigra of the right cerebral hemisphere. Five mg of 6-OHDA was dissolved in 5 mL of a 0.04% ascorbic acid solution which had been deoxygenated with nitrogen. Five μL of the 6-OHDA solution was injected into the substantia nigra through a 26 gauge needle over a five minute period. […]
Rotation rate and direction were determined with Coulbourn Instruments Rotometry Monitors. Clockwise and counter clockwise rotations were recorded at 30 and 60 minute intervals. […]
The data were analyzed with an analysis of variance statistical test and individual comparisons of each dose of test drug to control were made with Dunnett's multiple range test. The ED50 was calculated with a Litchfield and Wilcoxon test using percent of control values. […]

The nature of experiment [2]: Isolation-Induced Aggression in Mice. Format: in vivo, mouse (male Balb/c).
Procedure: Male Balb/c mice (Charles River) were used. […] Isolated mice failing to consistently attack an intruder were eliminated from the colony.
Drug testing was carried out by treating the isolated mice with test drugs or standards. Fifteen minutes after dosing with test drugs by the oral route, one isolated mouse was removed from its home cage and placed in the home cage of another isolate. Scoring was a yes or no response for each pair. A maximum of 3 minutes was allowed for an attack and the pair was separated immediately upon an attack. Selection of home cage and intruder mice was randomized for each test. Mice were treated and tested twice a week with at least a 2 day washout period between treatments.
The subject of experiment [3] is sigma receptor. The conditions noted are these: Tam, Eur. Pharmacol, 109:33-41 (1985); cited from earlier work.

Consider `O=C(CCCN1CCC(O)(c2ccc(Cl)cc2)CC1)c1ccc(F)cc1` [Haloperidol, haloperidol], for which, in experiment [1], the “Inhibition of (+)-N-Allylnormetazocine Induced Turning” value was “potently antagonized”. Also, the “Inhibition of Isolation-induced Aggression” value in experiment [2] (oral, fifteen minutes after dosing, class symbols not defined) is “potent activities in inhibiting the isolation-induced aggressive behavior”; in experiment [2] (po), “+++”.

As to `c1ccc(C2(N3CCCCC3)CCCCC2)cc1` [PCP, phencyclidine], the “affinity for the sigma receptor” value in experiment [3] is reported as “significant affinity for the sigma receptor”.
